# Test results as given in ChEMBL document CHEMBL3351363 (J Med Chem, 2014).
# How the values were obtained:
# [1] = molecular target: T1, Muscarinic acetylcholine receptor M1 (Homo sapiens, UniProt P11229); test: Positive modulatory activity at human M1 receptor expressed in HEK293T cells assessed as effect on carbachol-induced response by BRET based Gq protein activation assay; type: cell-based, HEK-293T
# T1 sequence (P11229 whole entry): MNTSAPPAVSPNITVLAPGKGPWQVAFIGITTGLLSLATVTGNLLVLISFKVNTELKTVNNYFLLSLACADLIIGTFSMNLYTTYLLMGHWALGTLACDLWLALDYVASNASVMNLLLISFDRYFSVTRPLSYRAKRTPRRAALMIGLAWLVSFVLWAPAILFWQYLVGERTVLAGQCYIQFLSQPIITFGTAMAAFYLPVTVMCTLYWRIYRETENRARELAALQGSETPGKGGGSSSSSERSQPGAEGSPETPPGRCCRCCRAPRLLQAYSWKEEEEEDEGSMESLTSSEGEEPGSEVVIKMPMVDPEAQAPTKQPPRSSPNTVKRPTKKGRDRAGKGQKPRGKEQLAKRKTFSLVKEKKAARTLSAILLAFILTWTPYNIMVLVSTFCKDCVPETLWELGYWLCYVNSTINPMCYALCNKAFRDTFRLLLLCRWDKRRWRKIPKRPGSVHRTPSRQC
# [2] = molecular target: T2, Muscarinic acetylcholine receptor M1 (Homo sapiens) (UniProt P11229); test: Agonist activity at human M1 receptor expressed in HEK293T cells by BRET based Gq protein engagement assay relative carbachol; type: cell-based; conditions: HEK-293T
# T2 sequence (whole entry): T1 sequence (P11229 whole entry)
# [3] = molecular target: T3, Muscarinic acetylcholine receptor M4 (Homo sapiens, UniProt P08173); test: Displacement of [3H]NMS from human M4 receptor expressed in CHO cells by microplate scintillation counting based radioligand binding assay; type: cell-based
# T3 sequence (P08173 whole entry): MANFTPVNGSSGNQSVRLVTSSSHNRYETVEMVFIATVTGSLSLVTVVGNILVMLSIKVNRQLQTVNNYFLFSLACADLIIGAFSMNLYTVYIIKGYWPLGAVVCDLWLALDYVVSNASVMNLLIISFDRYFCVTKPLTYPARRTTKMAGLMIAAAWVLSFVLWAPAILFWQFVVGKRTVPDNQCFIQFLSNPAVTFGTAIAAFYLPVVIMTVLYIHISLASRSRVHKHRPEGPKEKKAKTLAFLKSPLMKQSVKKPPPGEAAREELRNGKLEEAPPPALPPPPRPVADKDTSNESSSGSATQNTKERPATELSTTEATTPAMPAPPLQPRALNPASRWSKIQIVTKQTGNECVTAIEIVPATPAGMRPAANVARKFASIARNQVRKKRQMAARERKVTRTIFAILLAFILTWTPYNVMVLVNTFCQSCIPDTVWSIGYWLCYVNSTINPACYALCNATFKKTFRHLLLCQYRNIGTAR
# [4] = molecular target: T1, Muscarinic acetylcholine receptor M1
# [5] = molecular target: T3, Muscarinic acetylcholine receptor M4; test: Antagonist activity at human M4 receptor expressed in HEK293T cells assessed as inhibition of xanomeline-induced response by BRET based Gq protein engagement assay; type: cell-based, HEK-293T
# [6] = molecular target: T1, Muscarinic acetylcholine receptor M1; test: Displacement of [3H]NMS from human M1 receptor expressed in CHO cells by microplate scintillation counting based radioligand binding assay; type: cell-based
# [7] = molecular target: T1, Muscarinic acetylcholine receptor M1; remark: listed apart in the source
# [8] = molecular target: T1, Muscarinic acetylcholine receptor M1; test: Agonist activity at human M1 receptor expressed in HEK293T cells by BRET based Gq protein activation assay; type: cell-based, HEK-293T
# [9] = molecular target: T3, Muscarinic acetylcholine receptor M4
# [10] = molecular target: T2, Muscarinic acetylcholine receptor M1 (Homo sapiens); test: Positive modulatory activity at human M1 receptor expressed in HEK293T cells assessed as effect on carbachol-induced response by BRET based Gq protein activation assay relative to untreated control; type: cell-based; conditions: HEK-293T
# [11] = molecular target: T1, Muscarinic acetylcholine receptor M1; remark: listed apart in the source
# [12] = molecular target: T2, Muscarinic acetylcholine receptor M1 (Homo sapiens); test: Agonist activity at human M1 receptor expressed in HEK293T cells by BRET based beta-arrestin engagement assay relative to carbachol; type: cell-based; conditions: HEK-293T
# [13] = molecular target: T1, Muscarinic acetylcholine receptor M1; remark: listed apart in the source
# [14] = molecular target: T3, Muscarinic acetylcholine receptor M4; test: Agonist activity at human M4 receptor expressed in HEK293T cells by BRET based Gq protein activation assay
# [15] = molecular target: T4, Muscarinic acetylcholine receptor M4 (Homo sapiens) (UniProt P08173); test: Antagonist activity at human M4 receptor expressed in HEK293T cells assessed as inhibition of xanomeline-induced response by BRET based Gq protein engagement assay relative to untreated control; type: cell-based; conditions: HEK-293T
# T4 sequence (whole entry): T3 sequence (P08173 whole entry)
# [16] = molecular target: T4, Muscarinic acetylcholine receptor M4 (Homo sapiens); test: Antagonist activity at human M4 receptor expressed in HEK293T cells assessed as inhibition of carbachol-induced response by beta-arrestin engagement assay relative to untreated control; type: cell-based; conditions: HEK-293T
# [17] = molecular target: T3, Muscarinic acetylcholine receptor M4; test: Antagonist activity at human M4 receptor expressed in HEK293T cells assessed as inhibition of carbachol-induced response by BRET based Gq protein engagement assay; type: cell-based, HEK-293T
smiles,measurement,setting,value
CCCCC1CCN(CCCN2C(=O)CCc3ccccc32)CC1,EC50,[1],191 nM
same,Emax,[2],81%
same,Ki,[3],209 nM
same,EC50,[4],120 nM
same,IC50,[5],120 µM
same,Ki,[6],316 nM
same,IC50,[7],174 nM
same,EC50,[8],102 nM
same,IC50,[9],47.9 µM
same,Emax,[10],79%
same,IC50,[11],1580 nM
same,Emax,[12],32%
same,EC50,[13],263 nM
same,EC50,[14],275 nM
same,Imax,[15],78%
same,Imax,[16],16%
same,IC50,[17],2240 nM
